Data published in patent US8623593B1, “GPR 17 agonists and screening assay” (Rheinische Friedrich-Wilhelms-Universität Bonn, priority 2011, dated 2014).

Assays:
[1] = target: T1, GPR17 (Homo sapiens, UniProt Q13304); assay: inhibition of forskolin-stimulated cAMP production in CHO-GPR17 cells; type: cell-based; design: expressed in transfected cells; host or cells: Flp-In T-REx CHO cells, expression induced with doxycycline; settings: for activation of GPR17: comparison with RA-II-150, FIG. 2
Source text: Two signal transduction pathways that influence the activity of the adenylyl cyclase in oppositional ways can be activated upon receptor activation. Whereas the Gs pathway stimulates the adenylyl cyclase-dependent catalysation of cAMP formation, the Gi pathway inhibits it. The detection of cAMP accumulation is based on the HTRF® technology described above. In this case a monoclonal antibody specific to cAMP was the donor fluorophore while the acceptor fluorophore d2 was fused to cAMP. The analysis of the Gi pathway was based on the direct activation of the adenylyl cyclase, for example, by forskolin. Upon activation, the Gi pathway inhibits the forskolin-dependent activation of the adenylyl cyclase, leading to decreased cAMP accumulation. The inhibition of forskolin-stimulated cAMP accumulation in 1321N1 or CHO cells was performed using the HTRF® cAMP dynamic kit (Cisbio Bioassays, BP 84175, France). Cells were resuspended in assay buffer with 1 mM 3-isobutyl-1-methylxanthine (IBMX) supplemented and dispensed in 384-well microplates at a density of 50,000 cells/well in a volume of 5 μl. After preincubation in assay buffer for 30 min, the cells were stimulated by adding 5 μl of agonist in the respective concentration of forskolin. The final concentration of forskolin was dependent on the cell line which was employed in the assay. Adenylyl cyclase was stimulated with 1 μM forskolin in 1321N1-GPR17 cells and with 10 μM forskolin in CHO-GPR17 cells, followed by incubation for 30 min at room temperature. The reaction was terminated by lysis of the cells, which results from the addition of 5 μl of d2-conjugate followed by the addition of 5 μl of […] (both supplements are diluted in conjugate and lysis buffer). The assay was incubated for 60 min at room temperature and time-resolved FRET signals were measured at an excitation wavelength of 320 nm using the Mithras LB 940 multimode reader (Berthold technologies, D-75323 Bad Wildbad). The evaluation of HTRFR data was performed following the instructions of the kit manufacturer. Data analysis was based on the fluorescence ratio emitted by labeled cAMP (665 nm) over the light emitted by the europium cryptate-labelled anti-cAMP (620 nm). Levels of cAMP were normalised to the amount of cAMP elevated by 10 μM or 1 μM forskolin alone.
Target sequence in this assay (Q13304 29-367): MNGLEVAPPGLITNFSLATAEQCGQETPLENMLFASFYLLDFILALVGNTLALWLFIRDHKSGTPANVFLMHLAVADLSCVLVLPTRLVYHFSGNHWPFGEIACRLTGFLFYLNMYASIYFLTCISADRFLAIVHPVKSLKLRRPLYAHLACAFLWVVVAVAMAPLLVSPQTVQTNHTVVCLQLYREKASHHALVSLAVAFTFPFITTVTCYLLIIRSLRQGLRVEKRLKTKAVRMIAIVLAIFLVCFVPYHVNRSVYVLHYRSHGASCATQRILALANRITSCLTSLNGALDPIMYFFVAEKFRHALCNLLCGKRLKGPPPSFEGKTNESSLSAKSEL

[2] = target: T1, GPR17; settings: reported in WO 2005/103291; cited from earlier work
Target sequence in this assay (Q13304 whole entry, species assumed, the tested form may be a part): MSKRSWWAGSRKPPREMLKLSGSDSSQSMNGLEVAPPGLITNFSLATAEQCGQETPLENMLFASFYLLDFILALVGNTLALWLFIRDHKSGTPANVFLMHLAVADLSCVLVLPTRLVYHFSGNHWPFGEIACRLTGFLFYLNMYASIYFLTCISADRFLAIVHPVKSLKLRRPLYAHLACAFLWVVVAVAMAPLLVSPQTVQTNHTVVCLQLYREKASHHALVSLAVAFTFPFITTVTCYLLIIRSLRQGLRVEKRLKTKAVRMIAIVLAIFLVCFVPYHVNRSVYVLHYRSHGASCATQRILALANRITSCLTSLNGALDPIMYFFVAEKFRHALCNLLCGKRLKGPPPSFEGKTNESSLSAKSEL

[3] = exposure to air and light; cited from earlier work

Structure (SMILES) | less potent as compared with RA-II-150 ([1]; FIG. 2, forskolin-stimulated cAMP production) | inhibition of forskolin stimulated adenylylcyclase activity ([1]; GPR17 CHO cells, after 5-ALA addition) | activation of GPR17 [1] | amounts needed in the assays [2] | chemical stability [3]
NCC(=O)CCC(=O)O [5-ALA, 5 amino levulinic acid] | 10.000 fold | GPR17-independent inhibition | confirm the activation | three digit micromolar range | –
NCc1[nH]cc(CCC(=O)O)c1CC(=O)O [PBG, porphobilinogen] | – | – | failed | mM range | rapidly decomposes after exposure to air and light
